Results taken from patent publication US20230321135A1, “TARGETING OF LACTATE DEHYDROGENASE C, METHODS OF PREPARING SAME, AND METHODS OF USING SAME IN COMBINATION WITH ANTI-CANCER TREATMENTS” (QATAR FOUNDATION FOR EDUCATION, SCIENCE AND COMMUNITY …, priority 2020, published 2023).

How the values were obtained:
[1] = tested on: LDHC; settings: cited from earlier work
[2] = tested on: shLDHC breast cancer cells (MDA-MB-468, BT-549, MDA-MB-231, HCC-1500); assay: Clonogenic assay at 14 days of culture post-treatment (72 h) with olaparib or cisplatin; type: cell-based; settings: cell-line dependent
[3] = tested on: MDA-MB-468 cells; assay: Western blot of cleaved caspase 3 after olaparib or cisplatin treatment; type: cell-based; settings: MDA-MB-468, after treatment
Excerpt: (§1) FIG. 6A: Annexin V/PI flow cytometric quantification of apoptosis after 72 hrs of treatment with olaparib or cisplatin. FIG. 6B depicts a western blot of cleaved caspase 3 protein expression with β-actin as loading control. Numbers under each lane represent mean densitometry values (arbitrary units) for cleaved caspase 3 signal (high exposure blot) from three independent experiments normalized to β-actin. FIG. 6C: Representative immunofluorescence microscopy images of phospho-γ-H2AX (red) and DAPI-stained nuclei (100× magnification). Yellow arrows indicate early apoptotic cells and white arrows indicate late apoptotic cells. […] All statistical analysis comparing shCTRL vs shLDHC performed using Student's t-test.
(§2) DNA damage repair inhibitors and DNA damage inducing agents, including the Poly ADP-ribose polymerase (PARP)-inhibitor olaparib and cisplatin, are widely used anti-cancer drugs with particular benefit to patients with defects in DDR pathways such as BRCA1/2-positive or ‘BRCAness’ basal breast cancer patients.

[4] = tested on: shLDHC breast cancer cells (MDA-MB-468, BT-549, HCC-1500); assay: Annexin V/PI apoptosis after 72 hrs of treatment with olaparib or cisplatin; type: cell-based
Excerpt: as §1
Supplemental FIG. 5A depicts a representative Annexin V/PI flow cytometry plots of MDA-MB-468 cells after 72 hrs of treatment with olaparib or cisplatin. Supplemental FIG. 5B depicts Annexin V/PI flow cytometric quantification of BT-549 cells after 72 hrs of treatment with olaparib or cisplatin. Supplemental FIG. 5C: Annexin V/PI flow cytometric quantification of HCC-1500 cells after 72 hrs of treatment with olaparib or cisplatin. […] Statistical analysis comparing shCTRL vs shLDHC performed using Student's t-test. […]

[5] = tested on: HCC-1500 cells; assay: Sensitivity to olaparib or cisplatin (72 h treatment; Annexin V/PI, clonogenic assay); type: cell-based; settings: 14 days of culture post-treatment (72 h)
[6] = tested on: MDA-MB-468 cells; assay: Phospho-γ-H2AX immunofluorescence after olaparib or cisplatin treatment; type: cell-based; settings: similar levels in shCTRL and shLDHC treated cells
Excerpt: as §1, §2

Question: With CCNC(=O)C(=O)O [N-Ethyl oxamate] as the molecule, how does the “affinity for LDHC” value [1] read?
Answer: The value was “high affinity”.

Question: For CCCNC(=O)C(=O)O [N-propyl oxamate], which “selectivity towards LDHC” value ([1]; vs other lactate dehydrogenase enzymes (LDHA, LDHB)) is on record?
Answer: Its value is “high degree of selectivity”.

Question: For N.N.[Cl][Pt][Cl] [cisplatin], which “colony formation ability of shLDHC cells further compromised, compared to shCTRL treated cells” value [2] is on record?
Answer: The value was “greater than 4 fold”.

Question: What about the “expression of cleaved caspase 3 in shLDHC cells” value [3] of the same molecule?
Answer: Its value is “augmented”.

Question: And the “apoptosis in giant shLDHC cells compared to shCTRL cells” value [4]?
Answer: Its value is “further induced”.

Question: And the “clonogenic ability of shCTRL and shLDHC cells” value [5]?
Answer: Its value is “completely abolished”.

Question: What about the “DNA damage after treatment” value [6] of the same molecule?
Answer: Its value is “significant increase”.

Question: For O=C(c1cc(Cc2n[nH]c(=O)c3ccccc23)ccc1F)N1CCN(C(=O)C2CC2)CC1 [olaparib], which “colony formation ability of shLDHC cells further compromised, compared to shCTRL treated cells” value [2] is on record?
Answer: Its value is “about 2 fold”.

Question: What about the “expression of cleaved caspase 3 in shLDHC cells” value [3] of the same molecule?
Answer: Its value is “augmented”.

Question: And the “apoptosis in giant shLDHC cells compared to shCTRL cells” value [4]?
Answer: The value was “further induced”.

Question: What about the “DNA damage after treatment” value [6] of the same molecule?
Answer: Its value is “significant increase”.
